From patent publication US8273787B2, “Activated cytotoxic compounds for attachment to targeting molecules for the treatment of mammalian disease conditions” (Onconova Therapeutics, Inc, priority 2006, dated 2012)

Columns and labels:
2008/17/4 (RESISTANT) = experiment: growth inhibition, 2008/17/4 (resistant); format: cell-based
Description: (§1) Two compounds were selected from our library of cytotoxic molecules for immunoconjugation since they both have IC50 values in the low nanomolar range. Various tumor cell lines (ATCC) were treated for 96 hours in the presence of increasing concentrations of each compound and the total number of viable cells remaining was determined after 96 hours of exposure. The IC50 value was determined to be the amount of drug required to inhibit the growth of each cell line 50% as compared to vehicle treated cells.
(§2) Another extremely important predictive factor is the ability of these compounds to kill cell lines overexpressing multiple drug resistance (MDR) genes. A very high percentage of cancer patient relapses are due to some form of resistance to traditional chemotherapy. Of these patients, the vast majority express one or more of the MDR genes within the ABC transport gene family. Overexpression of these genes increases the efflux of compounds that are recognized by these pumping systems. […] Onconova's benzyl styryl sulfone compounds are not recognized by the MDR-1 gene and therefore provide an advantage over other highly toxic drugs including but not limited to the taxanes, doxorubicin, etoposide, and vinca-alkaloids. […] MES-SA/Dx5, uterine sarcoma, and […], ovarian, are both classical multidrug resistant cell lines that are cross resistant to the taxanes and anthracyclins. Harker, W G, and Sikic, B. I., Multidrug (Pleiotropic) Resistance In Doxorubicin-Selected Variants Of The Human Sarcoma Cell Line MES-SA, Cancer Res. 45(9):4091-6 (1985). MES-SA/Dx5 and Apr. […] Fujimori, A., et al., Mutation At The Catalytic Site Of Topoisomerase I In CEM/C2, A Human Leukemia Cell Line Resistant To Camptothecin, Cancer Res. 55(6): 1339-46 (1995). ON 01500 and ON 013100, for example, are both extremely active against these resistant cell lines.

MES-SA/Dx5 (RESISTANT) = experiment: growth inhibition, MES-SA/Dx5 (resistant); format: cell-based, Human
Description: as §1, §2

2008 (PARENTAL) = experiment: growth inhibition, 2008 (parental); format: cell-based; conditions: ovarian
Description: as §1, §2

MES-SA (PARENTAL) = experiment: growth inhibition, MES-SA (parental); format: cell-based; conditions: Homo sapiens, uterine sarcoma
Description: as §1, §2

CEM = experiment: 96 hour growth inhibition, CEM; format: cell-based; conditions: Homo sapiens, CCRF-CEM; CEM (PARENTAL)
Description: as §1, §2

CEM/C2 (RESISTANT) = experiment: growth inhibition, CEM/C2 (resistant); format: cell-based, Human
Description: as §1, §2

| Compound | RSIST-ANCE (2008/17/4 (RESISTANT); 2008/17/4 (RESISTANT) versus 2008 (PARENTAL)) | IC50 (2008/17/4 (RESISTANT); 2008/17/4 (RESISTANT), ovarian, multidrug resistant) [nM] | fold resistant (2008/17/4 (RESISTANT); 2008/17/4 (printed Apr. 17, 2008) versus parental) [fold] | IC50 (MES-SA/Dx5 (RESISTANT); Homo sapiens, MES-SA/Dx5 (RESISTANT), uterine sarcoma, multidrug resistant) [nM] | RSIST-ANCE (MES-SA/Dx5 (RESISTANT); MES-SA/Dx5 (RESISTANT) versus MES-SA (PARENTAL)) | fold resistant (MES-SA/Dx5 (RESISTANT); MES-SA/Dx5 versus parental) [fold] | IC50 (2008 (PARENTAL)) [nM] | IC50 (MES-SA (PARENTAL)) [nM] | IC50 (CEM) [nM] | RSIST-ANCE (CEM/C2 (RESISTANT); CEM/C2 (RESISTANT) versus CEM (PARENTAL)) | IC50 (CEM/C2 (RESISTANT); Homo sapiens, CEM/C2 (RESISTANT), non classical multiple drug resistant) [nM] |
| --- | --- | --- | --- | --- | --- | --- | --- | --- | --- | --- | --- |
| CC(=O)O[C@H]1C(=O)[C@@]2(C)[C@H]([C@H](OC(=O)c3ccccc3)[C@]3(O)C[C@H](OC(=O)[C@H](O)[C@@H](NC(=O)c4ccccc4)c4ccccc4)C(C)=C1C3(C)C)[C@]1(OC(C)=O)CO[C@@H]1C[C@@H]2O [PACLITAXEL, reference compound] | 667 | 2000 | 667 | 750 | 188 | 188 | 3 | 4 | – | – | – |
| CC[C@@]1(O)C(=O)OCc2c1cc1n(c2=O)Cc2cc3ccccc3nc2-1 [CAMPTOTHECIN, reference compound] | – | – | – | – | – | – | – | – | 2 | 500 | 1000 |
